Columns and labels:
T7 RNA polymerase = biological target: T1, T7 RNA polymerase (Escherichia phage T7, UniProt P00573); assay: Incorporation of Fc-UTP into RNA in the course of transcription; assay type: biochemical
T1 construct: purchased USB
Experimental: Circular plasmid pT7Mta which contains the promoter for T7 RNA polymerase followed by the gene for aptamer C40 and a T7 terminator sequence was used for transcription. T7 RNA polymerase tends to produce short abortive RNA transcripts when modified nucleotides are incorporated into the first 12 nucleotides of RNA.
A typical transcription mixture (10 μL) contained 40 mM tris-HCl (pH 8.0), 15 mM MgCl2, 5 mM DTT, 0.05 mg/mL BSA, 1 UOL Rnasin, 0.4 mM NTPs, 10 ug/mL pT7Mta template, and 10U/uL T7 RNA polymerase. In some reaction mixtures, UTP was partially or fully substituted with […] in such a way that the total concentration of UTP and Fc-UTP was still 0.4 mM. Reaction mixtures were incubated at 37° C. for 2 h. Reactions were stopped by addition of 10 μL of gel loading buffer (98% formamide, 10 mM EDTA (pH 8.0), 0.025% bromophenol blue and 0.025% xylene cyanole PF) and heated at 95° C. for 2 min. RNA fragments were separated by 10% PAGE/8 M urea. The gel was stained by SYBR Green II (Sigma) according to manufacturers procedure, and visualised on a Fluorimager (Bio-Rad).

[1] = Cyclic voltammetry of Fc-NTP; assay type: physicochemical; conditions: vs. Ag/AgCl; 20 mM tris-acetate pH 7.4, 100 mM KCl, 1 mM MgCl2; scan rate 20 mV/s
Source text: Fc-dUTP and Fc-UTP have characteristic absorption spectra which correspond to a superposition of spectra for the modified nucleotide and ferrocene carboxamide constituents. They have a strong absorption in the UV region and a seal, broad peak characteristics of ferrocene near 440 nm. Cyclic voltammetry of Fc-dUTP yields a symmetric peak with E1/2=398 mV vs. Ag/AgCl, consistent with reversible redox reaction of the Fc moiety. The redox potential of Fc-dUTP is 90 mV greater than the potential of ferrocenecarboxylate (310 mV vs. Ag/AgCl) measured in the same buffer (data now shown), reflecting the change of pentadienyl ring substituent (—COO to —CONHR) to one which is more electron-withdrawing. The observed potential is close to that reported for a ferrocene carboxamide moiety attached to the 5′-end of DNA oligonucleotides in aqueous buffer (406-425 mV vs. Ag/AgCl).
Cyclic voltammograms were recorded with an electrochemical analyser (BAS). The three-electrode system consisted of a glassy carbon working electrode, a Ag/AgCl (saturated KCl) reference electrode (Eref=206 mV) and a platinum counter electrode. Experiments were performed in a 5 ml electrochemical cell containing 0.8 mM Fc-NTP in 20 mM tris-acetate (pH 7.4), 100 mM KCl, and 1 mM MgCl2 at a scan rate of 20 mV/s. The scan range was from −0.1 to +0.8 V (vs. Ag/AgCl). (See FIG. 2).

T1 sequence (P00573 whole entry): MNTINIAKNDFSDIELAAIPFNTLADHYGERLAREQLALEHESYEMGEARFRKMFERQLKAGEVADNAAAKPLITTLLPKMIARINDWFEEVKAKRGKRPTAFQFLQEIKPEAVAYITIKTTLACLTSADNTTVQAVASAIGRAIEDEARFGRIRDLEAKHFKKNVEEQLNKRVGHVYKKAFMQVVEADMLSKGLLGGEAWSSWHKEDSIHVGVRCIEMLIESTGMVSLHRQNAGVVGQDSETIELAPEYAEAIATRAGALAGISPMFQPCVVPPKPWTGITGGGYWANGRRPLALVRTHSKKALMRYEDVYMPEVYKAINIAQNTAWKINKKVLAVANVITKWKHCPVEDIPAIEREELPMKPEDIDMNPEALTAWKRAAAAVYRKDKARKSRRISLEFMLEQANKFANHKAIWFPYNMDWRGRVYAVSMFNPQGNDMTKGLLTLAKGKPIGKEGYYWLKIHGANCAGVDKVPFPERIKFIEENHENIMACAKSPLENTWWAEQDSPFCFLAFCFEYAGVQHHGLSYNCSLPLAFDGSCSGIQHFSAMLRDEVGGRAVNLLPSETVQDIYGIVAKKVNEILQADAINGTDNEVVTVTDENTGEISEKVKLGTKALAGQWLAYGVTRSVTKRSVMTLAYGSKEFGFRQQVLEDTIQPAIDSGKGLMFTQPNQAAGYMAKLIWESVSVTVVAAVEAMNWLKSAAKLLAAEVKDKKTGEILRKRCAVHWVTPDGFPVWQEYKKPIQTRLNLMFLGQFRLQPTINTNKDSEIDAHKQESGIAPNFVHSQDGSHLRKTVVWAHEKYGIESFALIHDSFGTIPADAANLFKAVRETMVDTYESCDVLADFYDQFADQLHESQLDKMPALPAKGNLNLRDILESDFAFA

Compound | amount of RNA product formed (T7 RNA polymerase; substitution of UTP by Fc-UTP, total 0.4 mM) | amount of RNA product formed (T7 RNA polymerase; total absence of UTP (full substitution by Fc-UTP)) | E1/2 (redox potential) [1]
O=C(NCC=Cc1cn([C@@H]2O[C@H](COP(=O)(O)OP(=O)(O)OP(=O)(O)O)[C@@H](O)[C@H]2O)c(=O)[nH]c1=O)[c-]1cccc1.[Fe+2].c1cc[cH-]c1 [Fc-UTP, 5-(3ferrocenecarboxamidopropenyl-1)-uridine-5′-triphosphate] | significant decrease in the amount of RNA product formed | synthesized a significant amount of RNA product | –
ferrocenecarboxylate [reference compound] | – | – | 310 mV

Source: patent US20050214759A1, “Enzymatic redox labelling of nucleic acids” (priority 2001, published 2005)
